Key:
Type in all cases: in vivo
Monilinia fructicola = assay: Efficacy against brown rot affecting peach crop; details: Ipflufenoquin 4, Pyrimethanil 8.9, combination 4 + 8.9 fl oz/a; for % Severity on Fruit: untreated 63.8; for % Disease incidence on Fruit: untreated 96
Procedure: Experiments were carried out to evaluate the efficacy of the fungicidal combination of ipflufenoquin and pyrimethanil against brown rot (Monilinia fructicola) affecting peach crop, as disclosed in Table 4.

Wilsonomyces spp. = assay: Efficacy against Coryneum blight affecting peach crop; details: Ipflufenoquin 4, Pyrimethanil 8.9, combination 4 + 8.9 fl oz/a; for % Severity on Fruit: untreated 69.9; for % Disease incidence on Fruit: untreated 100
Procedure: Experiments were carried out to evaluate the efficacy of the fungicidal combination of ipflufenoquin and pyrimethanil against Coryneum blight (Wilsonomyces spp.) affecting peach crop, as disclosed in Table 5.

Cladosporium sp. = assay: Efficacy against scab affecting pecan (nuts); details: untreated 33.8
Procedure: Experiments were carried out to evaluate the efficacy of the fungicidal combination of ipflufenoquin and pyrimethanil (both tank mix fungicidal combination and pre-mix formulation as disclosed in Example 1) against scab (Cladosporium sp.) affecting pecan (i.e., nuts), as disclosed in Table 6.

[1] = higher rates: Ipflufenoquin 5, Pyrimethanil 11.1, tank mix 5 + 11.1, pre-mix 12.5 fl oz/a
[2] = lower rates: Ipflufenoquin 4, Pyrimethanil 8.9, tank mix 4 + 8.9, pre-mix 10 fl oz/a

Row | SMILES | % Severity on Fruit (Monilinia fructicola) | % Disease incidence on Fruit (Monilinia fructicola) | % Severity on Fruit (Wilsonomyces spp.) | % Disease incidence on Fruit (Wilsonomyces spp.) | % Severity on Nuts (Cladosporium sp.; [1]) | % Severity on Nuts (Cladosporium sp.; [2])
1 | Cc1cc(C)nc(Nc2ccccc2)n1 [Pyrimethanil, N-(4,6-dimethylpyrimidin-2-yl) aniline] | 15.5% | 19.5% | 42.8% | 65.8% | 15.7% | 19.2%
2 | Cc1nc2c(F)c(F)ccc2cc1Oc1cccc(F)c1C(C)(C)O [Ipflufenoquin, 2-{2-[(7,8-difluoro-2-methyl-3-quinolyl)oxy]-6-fluorophenyl}propan-2-ol] | 20.3% | 42.5% | 6.9% | 36.8% | 6.7% | 8.4%

— patent US20230247995A1, “FUNGICIDAL COMBINATIONS” (UPL Corporation Limited, priority 2022, published 2023)
